Read-outs that look alike come from different tables or passages of the source.
Assay: Plasma pharmacokinetics after a single subcutaneous administration of LEN
Format: in vivo, rhesus macaques
Details: male, rhesus monkey, plasma; for concentration at 9 week: week 9 post dose; for concentration at 10 week: week 10 post dose; for concentration at 11 week: week 11 post dose; for concentration at 12 week: week 12 post dose; for concentration at 13 week: week 13 post dose; for concentration at 14 week: week 14 post dose; for concentration at 15 week: week 15 post dose; for concentration at 16 week: week 16 post dose; for concentration at 17 weeks post challenge: week 17 post challenge; for concentration at 18 weeks post challenge: week 18 post challenge; for concentration at 0 weeks post challenge: week 0 post challenge; for concentration at 1 weeks post challenge: week 1 post challenge; for concentration at 2 weeks post challenge: week 2 post challenge; for concentration at 3 weeks post challenge: week 3 post challenge; for concentration at 4 weeks post challenge: week 4 post challenge; for concentration at 5 weeks post challenge: week 5 post challenge; for concentration at 6 weeks post challenge: week 6 post challenge; for concentration at 7 weeks post challenge: week 7 post challenge; for concentration at 0.14 week / concentration at 0.43 week / concentration at 1 week / concentration at 2 week / concentration at 17 week / concentration at 18 week / concentration at 19 week / concentration at 20 week / concentration at 21 week / concentration at 22 week / concentration at 23 week / concentration at 24 week / concentration at 25 week: Indian-origin, outbred; for concentration at 0.14 week: week 0.14 post dose; for concentration at 0.43 week: week 0.43 post dose; for concentration at 1 week: week 1 post dose; for concentration at 2 week: week 2 post dose; for concentration at 17 week: week 17 post dose; for concentration at 18 week: week 18 post dose; for concentration at 19 week: week 19 post dose; for concentration at 20 week: week 20 post dose; for concentration at 21 week: week 21 post dose; for concentration at 22 week: week 22 post dose; for concentration at 23 week: week 23 post dose; for concentration at 24 week: week 24 post dose; for concentration at 25 week: week 25 post dose; for half-life: sc; for concentration at 3 weeks: week 3 post dose; for concentration at 4 weeks: week 4 post dose; for concentration at 5 weeks: week 5 post dose; for concentration at 6 weeks: week 6 post dose
Description: All animals were housed at Bioqual Inc. For the in vivo SHIV stock titration study, 8 untreated outbred Indian-origin male rhesus macaques aged 3–5 years were challenged intrarectally per round for a total of 5 challenge rounds using increasing virus doses ranging from 0.625 to 100 TCID50, with the 100 TCID50 round performed twice for increased resolution (Supplemental Table 2). Plasma viral load was measured to confirm the infection status. […] Injection sites were monitored daily by veterinary staff for 2 weeks and then weekly through the end of study. On week 7, 11 animals were challenged by the intrarectal route with 1 mL RPMI containing 100 TCID50 SHIV-SF162P3. Whole blood was collected and processed into plasma and PBMCs as necessary for the assessment of routine hematology and clinical chemistry, viral load analysis, serology, and the bioanalysis of drug levels. Animals were considered protected if they remained SHIV negative by a plasma PCR assay and seronegative by enzyme immunoassay through week 10 after challenge.
Rhesus plasma samples were stored frozen at –80°C and thawed, and a 50 μL aliquot of each was treated with 200 μL acetonitrile containing an internal standard. After precipitation of the protein component, a 100 μL aliquot of the supernatant was transferred to a clean 96-well plate and mixed with 200 μL water. A 10 μL aliquot of the above solution was then injected into a Q-Exactive high resolution mass spectrometer from Thermo Electron with electrospray ionization in positive mode.

[1] = Indian-origin (outbred), subcutaneous, 50 mg/kg, Plasma LEN (Mean), 50 mg/kg sc
[2] = Indian-origin (outbred), subcutaneous, 50 mg/kg, Plasma LEN, animal CO92, 50 mg/kg
[3] = Indian-origin (outbred), subcutaneous, 50 mg/kg, Plasma LEN, animal V411, 50 mg/kg
[4] = Indian-origin (outbred), subcutaneous, 50 mg/kg, Plasma LEN, animal V430, 50 mg/kg
[5] = Indian-origin (outbred), subcutaneous, 50 mg/kg, Plasma LEN, animal V470, 50 mg/kg
[6] = Indian-origin (outbred), subcutaneous, 75 mg/kg, Plasma LEN (Mean), 75 mg/kg sc
[7] = Indian-origin (outbred), subcutaneous, 75 mg/kg, Plasma LEN, animal CP67, 75 mg/kg
[8] = Indian-origin (outbred), subcutaneous, 75 mg/kg, Plasma LEN, animal V417, 75 mg/kg
[9] = Indian-origin (outbred), subcutaneous, 75 mg/kg, Plasma LEN, animal V426, 75 mg/kg
[10] = Indian-origin (outbred), subcutaneous, 75 mg/kg, Plasma LEN, animal V435, 75 mg/kg
[11] = subcutaneous, 5 mg/kg, Plasma LEN (Mean), 5 mg/kg sc
[12] = subcutaneous, 10 mg/kg, Plasma LEN (Mean), 10 mg/kg sc
[13] = subcutaneous, 20 mg/kg, Plasma LEN (Mean), 20 mg/kg sc
[14] = subcutaneous, 50 mg/kg, Plasma LEN (Mean), 50 mg/kg sc
[15] = subcutaneous, 75 mg/kg, Plasma LEN (Mean), 75 mg/kg sc
[16] = outbred Indian-origin, subcutaneous, 5 mg/kg, Plasma LEN (Mean), 5 mg/kg sc
[17] = outbred Indian-origin, subcutaneous, 10 mg/kg, Plasma LEN (Mean), 10 mg/kg sc
[18] = outbred Indian-origin, subcutaneous, 20 mg/kg, Plasma LEN (Mean), 20 mg/kg sc
[19] = outbred Indian-origin, subcutaneous, 50 mg/kg, Plasma LEN (Mean), 50 mg/kg sc
[20] = outbred Indian-origin, subcutaneous, 75 mg/kg, Plasma LEN (Mean), 75 mg/kg sc
[21] = outbred Indian-origin, 50 mg/kg sc, mean ± SD

## CC(C)(C#Cc1ccc(-c2ccc(Cl)c3c(NS(C)(=O)=O)nn(CC(F)(F)F)c23)c([C@H](Cc2cc(F)cc(F)c2)NC(=O)Cn2nc(C(F)(F)F)c3c2C(F)(F)[C@@H]2C[C@H]32)n1)S(C)(=O)=O [LEN, Lenacapavir]
[1]
  concentration at 9 week: 0.0517 µM
  concentration at 10 week: 0.0487 µM
  concentration at 11 week: 0.0455 µM
  concentration at 12 week: 0.0379 µM
  concentration at 13 week: 0.0379 µM
  concentration at 14 week: 0.021 µM
  concentration at 15 week: 0.0184 µM
  concentration at 16 week: 0.0222 µM
[2]
  concentration at 17 weeks post challenge: 0.0136 µM
  concentration at 18 weeks post challenge: 0.0131 µM
[3]
  concentration at 17 weeks post challenge: 0.00222 µM
  concentration at 18 weeks post challenge: 0.002 µM
Indian-origin (outbred), subcutaneous, 50 mg/kg, Plasma LEN, animal V430, 50 mg/kg, week 16 post challenge
  concentration at 16 weeks post challenge: 0.00124 µM
[4]
  concentration at 17 weeks post challenge: 0.001 µM
  concentration at 18 weeks post challenge: 0.001 µM
[5]
  concentration at 17 weeks post challenge: 0.00855 µM
  concentration at 18 weeks post challenge: 0.0105 µM
Indian-origin (outbred), subcutaneous, 75 mg/kg, Plasma LEN (Mean), 75 mg/kg sc, week 8 post dose
  concentration at 8 week: 0.055 µM
[6]
  concentration at 9 week: 0.0726 µM
  concentration at 10 week: 0.098 µM
  concentration at 11 week: 0.0713 µM
  concentration at 12 week: 0.0535 µM
  concentration at 13 week: 0.0738 µM
  concentration at 14 week: 0.0379 µM
  concentration at 15 week: 0.0246 µM
  concentration at 16 week: 0.0309 µM
[7]
  concentration at 0 weeks post challenge: 0.154 µM
  concentration at 1 weeks post challenge: 0.0954 µM
  concentration at 2 weeks post challenge: 0.136 µM
  concentration at 3 weeks post challenge: 0.144 µM
  concentration at 4 weeks post challenge: 0.0881 µM
  concentration at 5 weeks post challenge: 0.0878 µM
  concentration at 6 weeks post challenge: 0.0976 µM
  concentration at 7 weeks post challenge: 0.0465 µM
[8]
  concentration at 0 weeks post challenge: 0.158 µM
  concentration at 1 weeks post challenge: 0.0439 µM
  concentration at 2 weeks post challenge: 0.0525 µM
  concentration at 3 weeks post challenge: 0.0886 µM
  concentration at 4 weeks post challenge: 0.069 µM
  concentration at 5 weeks post challenge: 0.0488 µM
  concentration at 6 weeks post challenge: 0.0573 µM
  concentration at 7 weeks post challenge: 0.0439 µM
[9]
  concentration at 0 weeks post challenge: 0.177 µM
  concentration at 1 weeks post challenge: 0.068 µM
  concentration at 2 weeks post challenge: 0.0897 µM
  concentration at 3 weeks post challenge: 0.144 µM
  concentration at 4 weeks post challenge: 0.117 µM
  concentration at 5 weeks post challenge: 0.0682 µM
  concentration at 6 weeks post challenge: 0.132 µM
  concentration at 7 weeks post challenge: 0.0574 µM
[10]
  concentration at 0 weeks post challenge: 0.0282 µM
  concentration at 1 weeks post challenge: 0.0125 µM
  concentration at 2 weeks post challenge: 0.0124 µM
  concentration at 3 weeks post challenge: 0.0148 µM
  concentration at 4 weeks post challenge: 0.0112 µM
  concentration at 5 weeks post challenge: 0.00922 µM
  concentration at 6 weeks post challenge: 0.00859 µM
[11]
  concentration at 0.14 week: 0.00976 µM
  concentration at 0.43 week: 0.00572 µM
  concentration at 1 week: 0.00282 µM
  concentration at 2 week: 0.00296 µM
[12]
  concentration at 0.14 week: 0.0199 µM
  concentration at 0.43 week: 0.0134 µM
  concentration at 1 week: 0.00688 µM
  concentration at 2 week: 0.00858 µM
[13]
  concentration at 0.14 week: 0.0413 µM
  concentration at 0.43 week: 0.0178 µM
  concentration at 1 week: 0.00923 µM
  concentration at 2 week: 0.0166 µM
[14]
  concentration at 0.14 week: 0.196 µM
  concentration at 0.43 week: 0.079 µM
  concentration at 1 week: 0.0565 µM
  concentration at 2 week: 0.0871 µM
  concentration at 17 week: 0.0221 µM
  concentration at 18 week: 0.017 µM
  concentration at 19 week: 0.0111 µM
  concentration at 20 week: 0.00852 µM
  concentration at 21 week: 0.00649 µM
  concentration at 22 week: 0.00723 µM
  concentration at 23 week: 0.00576 µM
  concentration at 24 week: 0.00632 µM
  concentration at 25 week: 0.00661 µM
[15]
  concentration at 0.14 week: 0.498 µM
  concentration at 0.43 week: 0.223 µM
  concentration at 1 week: 0.162 µM
  concentration at 2 week: 0.213 µM
  concentration at 17 week: 0.0245 µM
  concentration at 18 week: 0.0209 µM
  concentration at 19 week: 0.0162 µM
  concentration at 20 week: 0.0166 µM
  concentration at 21 week: 0.0123 µM
  concentration at 22 week: 0.00935 µM
  concentration at 23 week: 0.0103 µM
  concentration at 24 week: 0.0118 µM
  concentration at 25 week: 0.0116 µM
Outbred Indian-origin, 5-75 mg/kg sc, read-out: plasma drug half-life
  half-life: 14 to 56 days
Outbred Indian-origin, single sc dosing, range over 5-75 mg/kg groups, read-out: half-life
  half-life: 17 to 53 days
[16]
  concentration at 3 weeks: 0.00423 µM
  concentration at 4 weeks: 0.00414 µM
  concentration at 5 weeks: 0.006 µM
  concentration at 6 weeks: 0.00442 µM
Outbred Indian-origin, subcutaneous, 5 mg/kg, Plasma LEN (Mean), 5 mg/kg sc, week 7 post dose
  concentration at 7 weeks: 0.00529 µM
[17]
  concentration at 3 weeks: 0.0114 µM
  concentration at 4 weeks: 0.0102 µM
  concentration at 5 weeks: 0.0128 µM
  concentration at 6 weeks: 0.00732 µM
Outbred Indian-origin, subcutaneous, 10 mg/kg, Plasma LEN (Mean), 10 mg/kg sc, week 7 post dose
  concentration at 7 weeks: 0.0101 µM
[18]
  concentration at 3 weeks: 0.0213 µM
  concentration at 4 weeks: 0.0239 µM
  concentration at 5 weeks: 0.0301 µM
  concentration at 6 weeks: 0.0267 µM
Outbred Indian-origin, subcutaneous, 20 mg/kg, Plasma LEN (Mean), 20 mg/kg sc, week 7 post dose
  concentration at 7 weeks: 0.0274 µM
[19]
  concentration at 3 weeks: 0.0924 µM
  concentration at 4 weeks: 0.0853 µM
  concentration at 5 weeks: 0.0806 µM
  concentration at 6 weeks: 0.0719 µM
Outbred Indian-origin, subcutaneous, 50 mg/kg, Plasma LEN (Mean), 50 mg/kg sc, week 7 post dose
  concentration at 7 weeks: 0.103 µM
[20]
  concentration at 3 weeks: 0.126 µM
  concentration at 4 weeks: 0.0958 µM
  concentration at 5 weeks: 0.0899 µM
  concentration at 6 weeks: 0.0651 µM
Outbred Indian-origin, subcutaneous, 75 mg/kg, Plasma LEN (Mean), 75 mg/kg sc, week 7 post dose
  concentration at 7 weeks: 0.129 µM
Outbred Indian-origin, subcutaneous, LEN exposures at the time of challenge, 11 challenged animals, week 7 postdose
  concentration at 7 weeks: 0.018 to 0.177 µM
Outbred Indian-origin, 5 mg/kg sc, mean ± SD
  AUC(0-t): 9.3 ± 1.9 µM·h
[21]
  AUC(0-inf): 243 ± 70 µM·h
  AUC(0-t): 179 ± 23 µM·h
  Cmax: 0.2 ± 0.074 µM

From article PMC10425210 (The Journal of Clinical Investigation, 2023)
